Experimental findings from patent publication US20250215030A1, “STAT MODULATORS AND USES THEREOF” (Recludix Pharma, Inc., priority 2022, published 2025) are described below.

Bounds are passed on as bounds.

For one assay, the target named is T1, pSTAT6 (pY641-STAT6) (Homo sapiens, UniProt P42226).
T1 construct: host or cells: cryopreserved PBMC
T1 sequence (P42226 1-847): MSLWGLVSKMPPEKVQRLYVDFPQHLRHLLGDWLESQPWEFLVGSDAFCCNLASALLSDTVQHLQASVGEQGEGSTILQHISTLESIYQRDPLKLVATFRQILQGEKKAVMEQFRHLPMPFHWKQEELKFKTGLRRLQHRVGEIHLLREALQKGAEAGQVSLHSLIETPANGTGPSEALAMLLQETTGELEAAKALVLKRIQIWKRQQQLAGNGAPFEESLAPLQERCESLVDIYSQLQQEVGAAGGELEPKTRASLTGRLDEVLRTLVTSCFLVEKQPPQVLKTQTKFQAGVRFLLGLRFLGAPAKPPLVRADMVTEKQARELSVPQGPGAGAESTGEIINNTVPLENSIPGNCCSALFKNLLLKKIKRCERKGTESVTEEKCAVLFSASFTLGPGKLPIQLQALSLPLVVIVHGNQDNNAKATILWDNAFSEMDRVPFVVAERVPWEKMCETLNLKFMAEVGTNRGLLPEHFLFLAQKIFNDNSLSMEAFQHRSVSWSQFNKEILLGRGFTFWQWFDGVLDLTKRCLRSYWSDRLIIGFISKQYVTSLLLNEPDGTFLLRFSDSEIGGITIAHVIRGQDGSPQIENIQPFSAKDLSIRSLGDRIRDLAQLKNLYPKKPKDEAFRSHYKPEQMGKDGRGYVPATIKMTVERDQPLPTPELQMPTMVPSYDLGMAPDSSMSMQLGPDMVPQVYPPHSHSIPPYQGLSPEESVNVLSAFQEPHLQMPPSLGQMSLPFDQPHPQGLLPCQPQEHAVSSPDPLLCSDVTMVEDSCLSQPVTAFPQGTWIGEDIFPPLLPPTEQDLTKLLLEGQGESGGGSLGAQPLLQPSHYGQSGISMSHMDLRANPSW
Briefly: MSD-pSTAT-PBMC Assay (pSTAT6, IL-4 stimulated). Type of assay: cell-based. Conditions: compound 3 hrs, then 1 ng/mL IL-4 for 10 min. The text has this: Cryopreserved Peripheral Blood Mononuclear Cells (PBMC) are from AllCells. Recombinant Human IL-4 and IL-6 are from Peprotech. Mouse monoclonal anti-STAT3 antibody, rabbit monoclonal anti-pY705-STAT3 antibody, rabbit monoclonal Anti-pY641-STAT6 antibody, and lysis buffer are from Cell Signaling Technology (CST). Mouse monoclonal anti-STAT6 antibody is from BioLegend. Assay plates, blocker, and anti-rabbit secondary antibody are from Meso Scale Discovery (MSD).
Cryopreserved PBMCs were thawed out and allowed to recover overnight in IMDM+10% heat-inactivated FBS prior to plating 50,000 (STAT3) or 25,000 (STAT6) cells per well in 96-well U-bottom tissue culture plates. Cells were treated with compound for 3 hrs, then stimulated with 10 ng/mL IL-6 (STAT3) or 1 ng/mL IL-4 (STAT6) for 10 min. Cells were then spun down and washed with ice-cold PBS prior to lysing the cell pellet with 1× lysis buffer (CST) with 1× HALT protease and phosphatase inhibitor cocktail (Thermo). Lysates were transferred to and incubated overnight at 4° C. with shaking in QuickPlex 96-well high bind assay plates (MSD) pre-coated overnight with 30 μL per well of 0.6 μg/mL mouse monoclonal anti-STAT3 antibody (STAT3) or 2 μg/mL mouse monoclonal anti-STAT6 antibody (STAT6) in 1×PBS, and pre-blocked for 1 hour with 3% Blocker-A (MSD). Captured protein in the assay plates were then washed and probed with 25 μL per well of 0.25 μg/ml rabbit monoclonal anti-pY705-STAT3 antibody (STAT3) or 0.18 μg/ml rabbit monoclonal Anti-pY641-STAT6 antibody (STAT6) in 1% Blocker-A for 1 hour at room temperature with shaking, then washed and probed with 25 ul per well of 1 ug/mi Sulfo-TAG Labeled Goat Anti-Rabbit Antibody (MSD) in 1% Blocker-A for 1 hour at room temperature with shaking. Assay plates were then washed and 150 μL of 1× Read Buffer-T (MSD) was added to each well prior to reading on an SQ120 MSD Plate Reader. Assay signal from each sample was subtracted by the signal from unstimulated control wells and normalized to DMSO control wells. IC50 values were calculated using Graph Pad Prism Dose-Response Nonlinear Regression with variable slope. For both pSTAT3 and pSTAT6 A=≤100 nM; B=>100-1000 nM; C=>1000-3000 nM; and D=>3 μM.

A further assay addresses T2, pSTAT3 (pY705-STAT3) (Homo sapiens, UniProt P40763).
T2 construct: host or cells: cryopreserved PBMC
The assay is described as follows: MSD-pSTAT-PBMC Assay (pSTAT3, IL-6 stimulated). Conditions: PBMC, compound 3 hrs, then 10 ng/mL IL-6 for 10 min; MSD pY705-STAT3; read-out: pSTAT3. Type of assay: cell-based. In outline:
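Human PBMCs (50,000 cells/well for STAT3, 25,000 for STAT6) treated with compound 3 h, then stimulated 10 min with 10 ng/mL IL-6 or 1 ng/mL IL-4. Lysate pSTAT3 (pY705) or pSTAT6 (pY641) measured by MSD sandwich electrochemiluminescence. Signal minus unstimulated, normalized to DMSO; IC50 by variable-slope nonlinear regression.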

T2 sequence (P40763 whole entry): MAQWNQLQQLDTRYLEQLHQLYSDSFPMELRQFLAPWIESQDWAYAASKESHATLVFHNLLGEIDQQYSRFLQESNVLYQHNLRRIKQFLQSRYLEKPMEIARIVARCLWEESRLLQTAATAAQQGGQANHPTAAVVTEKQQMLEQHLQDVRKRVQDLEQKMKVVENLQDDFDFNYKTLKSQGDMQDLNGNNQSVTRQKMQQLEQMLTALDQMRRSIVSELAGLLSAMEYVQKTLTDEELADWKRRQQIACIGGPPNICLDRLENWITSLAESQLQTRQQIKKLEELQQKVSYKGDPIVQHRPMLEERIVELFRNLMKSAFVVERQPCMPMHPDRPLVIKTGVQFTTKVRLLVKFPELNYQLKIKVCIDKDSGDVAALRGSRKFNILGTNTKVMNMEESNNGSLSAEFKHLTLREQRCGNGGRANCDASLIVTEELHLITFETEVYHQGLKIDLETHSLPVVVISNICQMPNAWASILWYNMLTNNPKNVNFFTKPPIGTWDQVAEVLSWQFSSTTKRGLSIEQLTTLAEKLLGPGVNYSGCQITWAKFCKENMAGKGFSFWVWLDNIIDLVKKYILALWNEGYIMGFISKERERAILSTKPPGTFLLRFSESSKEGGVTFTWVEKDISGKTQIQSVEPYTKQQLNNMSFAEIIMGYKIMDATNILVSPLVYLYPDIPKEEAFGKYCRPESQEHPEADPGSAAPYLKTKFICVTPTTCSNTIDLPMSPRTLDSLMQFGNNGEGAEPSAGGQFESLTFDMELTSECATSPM

As to `CC(C)(C)C(=O)OCOP(=O)(OCOC(=O)C(C)(C)C)C(F)(F)c1ccc2sc(C(=O)N[C@H]3C[C@H]4C[C@H]4C[C@H]4CC[C@@H](C(=O)N5C[C@@H](C#N)[C@H](c6ccccc6)C5)N4C3=O)cc2c1` [Compound 140, ((((2-(((3S,6S,7aR, 8aS,9aR)-3-((3S,4R)-3-cyano-4-phenyl-pyrrolidine-1-carbonyl)-5-oxodecahydro-1H-cyclopropa [d]pyrrolo[1,2-a]azocin-6-yl)carbamoyl)benzo[b]thiophen-5-yl)difluoromethyl)phosphoryl)bis(oxy)) bis(methylene) bis(2,2-dimethylpro-panoate)], the IC50 against pSTAT6 (pY641-STAT6) and on pSTAT3 (pY705-STAT3) was less than 0.1 µM each time.

Consider `CC(C)CC(=O)SCCOP(=O)(OCOC(=O)OC(C)C)C(F)(F)c1ccc2sc(C(=O)N[C@H]3C[C@@H]4C[C@@H]4C[C@H]4CC[C@@H](C(=O)N5CC(C(=O)N6CCOCC6)C5)N4C3=O)cc2c1` (stereo partly drawn) [Compound 141, S-(2-(((difluoro(2-(((3S,6S,7aS, 8aR,9aR)-3-(3-(morpholine-4-carbonyl)azetidine-1-carbonyl)-5-oxodecahydro-1H-cyclopropa [d]pyrrolo[1,2-a]azocin-6-yl)carbamoyl)benzo[b]thiophen-5-yl)methyl)(((iso-propoxy-carbonyl)oxy)methoxy)phos-phoryl)oxy)ethyl) 3-methylbutane thioate], for which the IC50 against pSTAT6 (pY641-STAT6) was 1 to 3 µM; on pSTAT3 (pY705-STAT3), less than 0.1 µM.

With `CC(=O)N1C[C@@H](F)[C@@H](NC(=O)[C@@H]2CC[C@@H]3C[C@@H]4C[C@@H]4C[C@H](NC(=O)c4cc5cc(C(F)(F)P(=O)(OCCSC(=O)CC(C)C)OCCSC(=O)CC(C)C)ccc5s4)C(=O)N32)C1` [Compound 142, S,S′-(((((2-(((3S,6S,7aR, 8aS,9aR)-3-(((3S,4R)-1-acetyl-4-fluoropyrrolidin-3-yl)carbamoyl)-5-oxodecahydro-1H-cyclopropa [d]pyrrolo[1,2-a]azocin-6-yl)carbamoyl)benzo[b]thiophen-5-yl)difluoromethyl)phosphoryl)bis(oxy))bis(ethane-2,1-diyl)) bis(3-methylbutane thioate)], the values for the IC50 against pSTAT6 (pY641-STAT6) and on pSTAT3 (pY705-STAT3) were 1 to 3 µM and less than 0.1 µM, respectively.

As to `C[C@@H](NP(=O)(Cc1ccc2sc(C(=O)N[C@H]3C[C@@H]4C[C@@H]4C[C@H]4CC[C@@H](C(=O)N5CC(C(=O)N6CCOCC6)C5)N4C3=O)cc2c1)Oc1ccccc1)C(=O)OCc1ccccc1` (stereo partly drawn) [Compound 143, benzyl (((2-(((3S,6S,7aS, 8aR,9aR)-3-(3-(morpholine-4-carbonyl)azetidine-1-carbonyl)-5-oxodecahydro-1H-cyclopropa [d]pyrrolo[1,2-a]azocin-6-yl)carbamoyl)benzo[b]thiophen-5-yl)methyl) (phenoxy)phosphoryl)-D-alaninate], the IC50 is greater than 3 µM on pSTAT6 (pY641-STAT6) and 0.1 to 1 µM at pSTAT3 (pY705-STAT3).

In the case of `CC(C)(C)C(=O)SCCOP(=O)(Cc1ccc2sc(C(=O)N[C@H]3C[C@@H]4C[C@@H]4C[C@H]4CC[C@@H](C(=O)N5CC(C(=O)N6CCOCC6)C5)N4C3=O)cc2c1)OCCSC(=O)C(C)(C)C` [Compound 144, S,S′-(((((2-(((3S,6S,7aS, 8aR,9aR)-3-(3-(morpholine-4-carbonyl)azetidine-1-carbonyl)-5-oxodecahydro-1H-cyclopropa[d]pyrrolo[1,2-a]azocin-6-yl)carbamoyl)benzo[b]thiophen-5-yl)methyl)phosphoryl)bis(oxy))bis(ethane-2,1-diyl)) bis(2,2-dimethyl-propanethioate)], the IC50 against pSTAT6 (pY641-STAT6) was greater than 3 µM; at pSTAT3 (pY705-STAT3) it was 0.1 to 1 µM.

Take `CC(C)(C)C(=O)OCOP(=O)(OCOC(=O)C(C)(C)C)C(F)(F)c1ccc2sc(C(=O)N[C@H]3C[C@@H]4C[C@@H]4C[C@H]4CC[C@@H](C(=O)N5CC(C(=O)N6CCOCC6)C5)N4C3=O)cc2c1` [Compound 145, (((difluoro(2-(((3S,6S,7aS, 8aR,9aR)-3-(3-(morpholine-4-carbonyl)azetidine-1-carbonyl)-5-oxodecahydro-1H-cyclopropa [d]pyrrolo[1,2-a]azocin-6-yl)carbamoyl)benzo[b]thiophen-5-yl)methyl)phosphoryl)bis(oxy)) bis(methylene) bis(2,2-dimethyl-propanoate)]: the results for the IC50 against pSTAT6 (pY641-STAT6) and on pSTAT3 (pY705-STAT3) were 1 to 3 µM and less than 0.1 µM, respectively.
